From patent publication US7420068B2, “Crystalline composition containing escitalopram” (H. Lundbeck A/S, priority 2004, dated 2008)
Where a name gives a salt, the structure may show the parent alone.

How the values were obtained:
Format in all cases: physicochemical
[1] = Flow properties of prior-art crystalline products (background statement); conditions: product of the known preparation process
[2] = Particle size of prior-art crystalline products (background statement); conditions: product of the known preparation process
[3] = Particle size distribution by laser diffraction (Sympatec Helos, 1 bar dispersive pressure)
From the text: As used herein, “particle size distribution” means the cumulative volume size distribution of equivalent spherical diameters as determined by laser diffraction at 1 bar dispersive pressure in a Sympatec Helos equipment. “Median particle size” “MPS” and X50 refer, correspondingly, each to the median or 50% quantile of said particle size distribution. “X10” and “X95” refer, correspondingly, to the 10% respectively the 95% quantile. “X10/X50” and “X50/X95” refer to the ratio between X10 and X50 respectively X50 and X95.

Row | flow properties [1] | particle size [2] | X50 (median particle size) ([3]; S-diol batches, production scale recrystallisation from ethanol) | X10/X50 ([3]; S-diol batches, ratio of 10% quantile to median) | X50/X95 ([3]; S-diol batches, ratio of median to 95% quantile) | Particle size at quantile 10% ([3]; Sympatec Helos, quantile 10%) | Particle size at quantile 50% ([3]; Sympatec Helos, quantile 50%) | Particle size at quantile 90% ([3]; Sympatec Helos, quantile 90%) | Structure (SMILES)
1 | similarly poor | 2-20 μm | – | – | – | – | – | – | CN(C)CCC[C@@]1(c2ccc(F)cc2)OCc2cc(C#N)ccc21.O=C(O)C(=O)O [escitalopram oxalate, (S)-1-[3-(dimethylamino)propyl]-1-(4-fluorophenyl)-1,3-dihydro-5-isobenzofurancarbonitrile oxalate]
2 | – | – | 171 µm | 0.13 | 0.44 | 13 μm | 163 μm | 455 μm | CN(C)CCC[C@@]1(c2ccc(F)cc2)OCc2cc(C#N)ccc21 [Example 1, escitalopram oxalate]
3 | very poor | 2-20 μm | – | – | – | – | – | – | CN(C)CCCC1(c2ccc(F)cc2)OCc2cc(C#N)ccc21 (stereo not shown) [citalopram hydrobromide]
